These results are taken from BindingDB's records for PubMed 39722476 (Nanjing University of Chinese Medicine).

The target in the test is Methylosome protein 50/Protein arginine N-methyltransferase 5 (Homo sapiens, UniProt O14744+Q9BQA1). The experiment in a line: Inhibition of recombinant N-terminal FLAG-tagged human full-length PRMT5/full length human MEP50 extracted from baculovirus expression system using [3H]-SAM as substrate preincubated for 15 mins followed by substrate addition and measured after 60 mins by multimode plate reader analysis.
Methylosome protein 50/Protein arginine N-methyltransferase 5, sequence (O14744 whole entry): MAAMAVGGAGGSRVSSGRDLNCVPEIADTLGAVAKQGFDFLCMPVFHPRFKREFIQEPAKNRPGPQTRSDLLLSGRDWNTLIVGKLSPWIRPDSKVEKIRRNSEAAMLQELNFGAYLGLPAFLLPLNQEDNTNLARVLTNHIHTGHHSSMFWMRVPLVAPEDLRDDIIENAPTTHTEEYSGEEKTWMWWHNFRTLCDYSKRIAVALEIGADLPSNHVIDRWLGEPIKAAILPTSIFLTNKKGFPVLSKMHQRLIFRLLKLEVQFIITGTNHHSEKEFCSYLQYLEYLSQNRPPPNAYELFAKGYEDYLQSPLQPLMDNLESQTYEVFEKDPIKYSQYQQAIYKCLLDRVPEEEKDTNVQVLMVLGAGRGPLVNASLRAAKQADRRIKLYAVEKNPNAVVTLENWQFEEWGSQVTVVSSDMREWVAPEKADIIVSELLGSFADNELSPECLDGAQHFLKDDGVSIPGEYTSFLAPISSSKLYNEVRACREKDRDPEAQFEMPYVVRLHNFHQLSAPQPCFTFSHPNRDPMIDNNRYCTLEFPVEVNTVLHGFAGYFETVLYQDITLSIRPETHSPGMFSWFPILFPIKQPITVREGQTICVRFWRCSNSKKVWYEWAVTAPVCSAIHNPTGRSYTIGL
Methylosome protein 50/Protein arginine N-methyltransferase 5, sequence (Q9BQA1 whole entry): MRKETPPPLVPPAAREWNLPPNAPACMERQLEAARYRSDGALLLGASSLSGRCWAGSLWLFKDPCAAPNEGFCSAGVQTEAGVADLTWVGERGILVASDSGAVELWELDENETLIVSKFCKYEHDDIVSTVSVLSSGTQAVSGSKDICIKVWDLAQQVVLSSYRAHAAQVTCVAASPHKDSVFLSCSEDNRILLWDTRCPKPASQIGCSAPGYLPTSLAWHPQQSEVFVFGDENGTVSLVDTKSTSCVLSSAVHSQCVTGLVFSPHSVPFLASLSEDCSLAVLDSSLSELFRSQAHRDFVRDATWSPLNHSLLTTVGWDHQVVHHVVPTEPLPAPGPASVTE

Take `CC(=O)N1CCC(Nc2cc3c(cn2)C2(CC2)CN(C[C@H](O)CN2CCc4ccccc4C2)C3=O)CC1` [US20240116918, Example 1]: the IC50 (commonly the concentration at which inhibition is half-maximal) came out at 0.033 µM.
